Earlier results on three compounds are cited in patent US11065260B1, “Method of treatment for reducing pulmonary inflammation in a patient with pathogen infection using oral prostacyclin analog drugs” (priority 2020, dated 2021).

Data set [1] deals with COVID-19. Conditions: several small trials.
The conditions of data set [2]: human, in vivo, po.
The conditions of data set [3]: human, in vivo, inhaled or intranasal.
For data set [4] the following is noted: within 1 hour, pH 7.4 phosphate buffer, optimal formulation.
For data set [5] the following is noted: human, in vivo.
For data set [6] the following is noted: patients with pulmonary hypertension and ARDS.
The conditions of data set [7]: in vivo, po.
The test system of the next data set is pulmonary inflammation. As to conditions: several animal studies.
Data set [8] has as its system COVID-19. As to conditions: randomized clinical trial of 199 patients.

Turning to `CCN(CCO)CCCC(C)Nc1ccnc2cc(Cl)ccc12` (stereo not drawn) [hydroxychloroquine], the clinical results in the data set on COVID-19 [1] is recorded as “mixed results”.
The half-life is the time in which the quantity being followed falls by half. With `CC#CCC(C)[C@H](O)/C=C/[C@@H]1[C@H]2C/C(=C/CCCC(=O)O)C[C@H]2C[C@H]1O` (stereo partly drawn) [iloprost], in data set [2], the “adverse effects leading to discontinuation of dose escalation” value is “flushing and headache”; the bioavailable dose fraction result is on record as “highest”; the “duration of half-maximal serum levels (mean)” value is 2.4 h; the “duration of therapeutic serum levels” value was 2.1 to 5.0 h. In addition, in the data set with human monocytes, the “production of interleukin IL-6” value is “inhibit” and the “production of intracellular TNF-α” value is “inhibit”. For the same compound, in the data set on T cells, the “IL-2 and RANKL” value was “increasing”; the “TNF-α production by T cells” value was “reducing”; the “number of T regulatory cells” value was “reducing”. Also, the half-life in data set [3] was 20 to 30 min. In addition, the “in vitro dissolution of the dose” value in [4] is reported as 60%. Also, in [5], the contraindications result is “no contraindications” and the side effects entry is “minimal side effects”. In addition, in data set [6], the gas exchange result is on record as “improved”. The steady-state serum levels in [7] is 260 pg/mL. Moreover, the pulmonary inflammation entry with pulmonary inflammation is reported as “reduce pulmonary inflammation”.
For the compound lopinavir-ritonavir, in the data set on COVID-19 [8], the clinical benefit result is “No benefit”.
